Experimental data published in patent publication US6391538B1, “Stabilization of implantable bioprosthetic tissue” (The Children's Hospital of Philadelphia, priority 2000, dated 2002).
Several values for one entry are separate records, joined by “and”; a condition that tells them apart may be missing. Equal values may be shown once.

Columns and labels:
[1] = test system: porcine aortic wall segments; assay: Subdermal calcification study in rats, porcine aortic wall; format: in vivo; conditions: Group III: TGA second method, then treated with and stored in formalin-containing solution, 21 days, average ± standard error
Protocol: (§1) In a second method of cross-linking bioprosthetic tissue, separate 100 milliliter aliquots of […] TGA in 0.10 molar HEPES buffer at pH 7.4 were prepared. The following were added to individual aliquots of this solution.
(§2) The tissues and solutions were maintained at room temperature with constant shaking for up to seven days, during which time the pH of each cross-linking reaction was monitored. For selected reactions, the reaction mixture solution was replaced every 24 hours with a freshly-prepared 100 milliliter aliquot of 0.1 molar TGA in 0.10 molar HEPES buffer at pH 7.4. At selected times, a small section was removed from each tissue in each of the stabilization reaction mixtures, and the section was analyzed by differential scanning calorimetry to determine the thermal shrinkage temperature (Ts). After seven days of reaction, one group of each of the tissues was transferred to 100 milliliters of 0.05 molar phosphate buffer containing 4% (v/v) formalin and stored in this solution prior to use in subsequent experiments.
(§3) Subdermal calcification studies were performed in rats using tissues treated and stored as described above. […] Twenty-one days following implantation, the tissues were recovered and their calcium content was measured in samples taken from each tissue.

porcine aortic cusps = assay: Subdermal calcification study in rats, porcine aortic cusps; format: in vivo
Protocol: In a first method of cross-linking bioprosthetic tissue, four separate cross-linking solutions were prepared:
1) 0.1 molar TGA in 0.05 molar HEPES buffer at pH 7.4,
2) 0.1 molar TGA in 0.05 boric acid-borax buffer at pH 9.0,
3) 0.1 molar Denacol 521™ (Nagase Chemical Co., Japan) in 0.05 molar HEPES buffer at pH 7.4, and
4) 0.05 molar HEPES buffer (pH 7.4) containing 0.6% (v/v) glutaraldehyde.
Twenty fresh porcine aortic cusps were added to separate 100 milliliter aliquots of each of the four solutions (i.e. using a total of eighty cusps). The cusps and solutions were maintained with constant shaking at room temperature for up to ten days without changing the solution. At selected times, a small section was removed from each of the cusps in each of the cross-linking reactions and analyzed by differential scanning calorimetry to determine the thermal shrinkage temperature (Ts). Cross-linking reactions were considered complete when the value of Ts remained substantially constant over time. Cusps treated in this manner were maintained in the cross-linking solution for more than 20 days prior to use in subsequent experiments. […]
Subdermal calcification studies were performed in rats using tissues treated and stored as described above. Following treatment by either of the two methods described above, the tissues were rinsed thoroughly with excess sterile saline solution immediately prior to implantation. Tissues were implanted subdermally (1 tissue sample per rat, 10 rats per treatment method). Twenty-one days following implantation, the tissues were recovered and their calcium content was measured in samples taken from each tissue.

A10 cells = assay: Relative biocompatibility of treated collagen surfaces, survival of A10 cells; format: cell-based; conditions: A10 cells on denatured bovine type I collagen film treated with 0.2% (v/v) glutaraldehyde (24 hours, room temperature) or 0.1 molar TGA (24 hours, 37° C.), pH 7.4; about 24 hours of culturing
Protocol: Denatured (100° C., 1 hour) bovine type I collagen was applied as a film to duplicate culture surfaces. One surface was treated by contacting it with a solution comprising 0.2% (v/v) glutaraldehyde at pH 7.4 for 24 hours at room temperature (i.e. about 20° C.). Another surface was treated by contacting it with a solution comprising 0.1 molar TGA at pH 7.4 for 24 hours at 37° C. Both surfaces were rinsed extensively using phosphate-buffered saline (pH 7.4) in order to remove non-reacted compounds. A10 cells (obtained from the American Type Culture Collection; Gaithersburg, Md.) were provided to both surfaces, and survival of the cells was monitored. A high proportion (estimated at 30% or more of cells) which were provided to the glutaraldehyde-treated collagen surface appeared to be dead following about 24 hours of culturing, with significant amounts of cell debris observed.

[2] = Thermal shrinkage temperature (Ts) by differential scanning calorimetry; format: physicochemical, porcine; conditions: cusp tissue, 0.1 molar TGA and 0.1 molar HEPES, solution replenished every 24 hours, seven days
Protocol: (§4) Twenty fresh porcine aortic cusps were added to separate 100 milliliter aliquots of each of the four solutions (i.e. using a total of eighty cusps). The cusps and solutions were maintained with constant shaking at room temperature for up to ten days without changing the solution. At selected times, a small section was removed from each of the cusps in each of the cross-linking reactions and analyzed by differential scanning calorimetry to determine the thermal shrinkage temperature (Ts). Cross-linking reactions were considered complete when the value of Ts remained substantially constant over time. Cusps treated in this manner were maintained in the cross-linking solution for more than 20 days prior to use in subsequent experiments.
as §2, with “After seven days of reaction, one group of each of the tissues was transferred to 100 milliliters of 0.05 molar phosphate buffer containing 4% (v/v) formalin and stored in this solution prior to use in subsequent experiments.” left out

[3] = pH monitoring of cross-linking reactions; format: physicochemical
Protocol: as §4
as §2, with “After seven days of reaction, one group of each of the tissues was transferred to 100 milliliters of 0.05 molar phosphate buffer containing 4% (v/v) formalin and stored in this solution prior to use in subsequent experiments.” left out

bovine pericardium = assay: Subdermal calcification study in rats, bovine pericardium; format: in vivo; conditions: Group III: TGA second method, then treated with and stored in formalin-containing solution, 21 days, average ± standard error
Protocol: as §1, §2, §3

[4] = cusps cross-linked with 0.1 molar TGA in borate buffer pH 9.0, first method, subdermal in rats, 21 days

Row | Compound | Calcium (micrograms/milligram of dry tissue) [1] | calcium content, average value ± standard error (porcine aortic cusps; D: cusps cross-linked with 0.1 molar TGA in HEPES buffer pH 7.4, first method, subdermal in rats, 21 days) | calcium content of individual tissue samples (porcine aortic cusps; D: cusps cross-linked with 0.1 molar TGA in HEPES buffer pH 7.4, first method, subdermal in rats, 21 days, listed as D) | calcium content of individual tissue samples (porcine aortic cusps; [4]) | calcium content, average value ± standard error (porcine aortic cusps; [4]) | Calcium (micrograms/milligram of dry tissue) (porcine aortic cusps; porcine aortic cusps, Group III: TGA second method, then treated with and stored in formalin-containing solution, subdermal in rats, 21 days, average ± standard error) | post-implantation calcification of the tissue, result in words (porcine aortic cusps; tissues treated by first and second stabilization methods, compared with glutaraldehyde treatment) | proportion of cells which appeared to be dead (A10 cells) | thermal shrinkage temperature (Ts) [2] | pH of the stabilization reaction mixture ([3]; first stabilization method, solution not changed, seven-day reaction period) | pH of the stabilization reaction mixture ([3]; second method, reaction mixture solution replaced every 24 hours) | Calcium (micrograms/milligram of dry tissue) (bovine pericardium) | calcium content, average value ± standard error (porcine aortic cusps; cusps cross-linked with 0.6% (v/v) glutaraldehyde in 0.05 molar HEPES pH 7.4, first method, subdermal in rats, 21 days) | calcium content of individual tissue samples (porcine aortic cusps; cusps cross-linked with 0.6% (v/v) glutaraldehyde in 0.05 molar HEPES pH 7.4, first method, subdermal in rats, 21 days, listed as A)
1 | C1OC1CN(CC1CO1)CC1CO1 (stereo not drawn) [TGA, triglycidyl amine] | 21.17 ± 1.81 micrograms/milligram of dry ti | 4.13 ± 2.14 micrograms of calcium per milligram of tissue | 1.59 micrograms of calcium per milligram of tissue and 17.58 micrograms of calcium per milligram of tissue and 1.107 micrograms of calcium per milligram of tissue and 1.021 micrograms of calcium per milligram of tissue and 0.615 micrograms of calcium per milligram of tissue and 1.30 micrograms of calcium per milligram of tissue and 8.75 micrograms of calcium per milligram of tissue and 1.14 micrograms of calcium per milligram of tissue | 1.318 micrograms of calcium per milligram of tissue and 0.811 micrograms of calcium per milligram of tissue and 1.31 micrograms of calcium per milligram of tissue and 2.13 micrograms of calcium per milligram of tissue and 1.20 micrograms of calcium per milligram of tissue and 3.85 micrograms of calcium per milligram of tissue | 1.769 micrograms of calcium per milligram of tissue | 18.07 ± 9.19 micrograms/milligram of dry ti | inhibits post-implantation calcification of the tissue relative to glutaraldehyde treatment | substantially undetectable proportion | about 83 °C | ~11.5 | ≤ 8 | 7.43 ± 3.47 micrograms/milligram of dry ti | – | –
2 | O=CCCCC=O [glutaraldehyde, reference compound] | – | – | – | – | – | – | – | ≥ 30% | – | – | – | – | 106.69 ± 9.81 micrograms of calcium per milligram of tissue | 63.28 micrograms of calcium per milligram of tissue and 72.44 micrograms of calcium per milligram of tissue and 117.67 micrograms of calcium per milligram of tissue and 131.43 micrograms of calcium per milligram of tissue and 158.70 micrograms of calcium per milligram of tissue and 140.34 micrograms of calcium per milligram of tissue and 141.91 micrograms of calcium per milligram of tissue and 94.44 micrograms of calcium per milligram of tissue and 89.60 micrograms of calcium per milligram of tissue and 87.42 micrograms of calcium per milligram of tissue
